Test results reported in patent US4772602A, “N-substituted 3,4-dihydropyrimidine derivatives as agents for treating disorders of cardiovascular system” (Suntory Limited, priority 1985, dated 1988).
Like-named read-outs stand apart in the source and are kept apart here.

Key:
[1] = test system: isolated guinea pig hearts (coronary artery); test: coronary vascular dilative effect in isolated guinea pig hearts (Langendorff's method); set-up: species or system guinea pig (Heartley); details: 37° C., 0.1 ml administered into the coronary artery
Description: The coronary vascular dilative effect of 3N-substituted 3,4-dihydropyrimidine derivatives was tested.
Heartley guinea pigs (weight 400-500 g) were killed by a blow on the head and their hearts were immediately isolated. The hearts were perfused with Krebs-Henseleit solution bubbled with a mixture of 95% O2 +5% CO2 and maintained at 37° C. at a constant rate of 6 ml/minute according to the Langendorff's method [J. Pharmacol. Methods 2, 143 (1979)]. The perfusion pressure was measured by a pressure transducer continuously. Samples were prepared by emulsifying 1 mg of a test compound in 1 ml of a mixture of dimethylsulfoxide and physiological saline solution (1:9) and diluting with physiological saline solution to the predetermined concentration. 0.1 ml of the diluted solution was administered into the coronary artery via a rubber tube connected to an aorta cannula to obtain ED50 (μg/heart) data as shown in Table 3. The numbers of the compounds in the Table correspond respectively to those of the working examples described above.

vertebral artery = test: vascular resistance of the vertebral artery in anesthetized dogs (ED30); assay type: in vivo, dog; details: Canis lupus familiaris, intravenous injection
Description: The pharmacological effect (ED30) of the compounds of the present invention with respect to the vascular resistance of the vertebral artery in anesthetized dogs was treated by the following procedure.
Adult dogs of either sex (7-14 kg in body weight) were anesthetized with at first thiopental sodium (35 mg/kg, intraperitoneal), anesthetized with urethane (400 mg/kg, intravenous) and chloralose (60 mg/kg, intravenous) and kept under artificial respiration throughout the experiment. After thoracotomy at the left first intercostal space, the vertebral artery was exposed and blood flow was measured with intracorporeal flow probe connected to an electromagnetic flowmeter (MF-27, Nihon Kohden).
At the same time, continuous measurement of the following parameters was made: systemic blood pressure (mean pressure) at the right femoral artery, the limb lead II ECG, the heart rate with a tachometer triggered by the R wave of ECG, and the vascular resistance determined by loading a electronic divider unit (EO-601 G, Nihon Kohden) with the mean values of blood pressure and vertebral artery blood flow. All of these parameters were recorded simultaneously on a polygraph (RM-600, Nihon Kohden).
All the test compounds were injected through a cannula inserted into the femoral vein.
The ED30 (μg/kg) values obtained by intravenous injection are listed in Table 4, wherein the Compound Numbers are keyed to the Example Numbers.

[2] = test system: conscious spontaneously hypertensive rats (SHR); test: hypotensive action in conscious spontaneously hypertensive rats (SHR); assay type: in vivo, rat (SHR); details: 10 mg/kg orally
Description: A selected compound of the present invention was tested for its hypotensive action in conscious spontaneously hypertensive rats (SHR).
A group of 17 to 20-week old male SHR were anesthetized with ether and a cannula was inserted into the left femoral artery. At least one day after the operation, the cannula was connected to a pressure transducer and the blood pressure was measured continuously under conscious and unrestrained condition, thereby obtaining the data shown in Table 6. The test compound as clear solution dissolved in 10% ethanol was administered orally at a dose of 10 mg/kg (body weight) to each animal fasted overnight.

[3] = acute toxicity (LD50), Litchfield-Wilcoxon method; set-up: species or system mouse (male ddY); details: mouse, in vivo, emulsion in 10% dimethyl sulfoxide
Description: The acute toxicity (LD50) data of compound No. 28 of the present invention as administered to two groups of 5 or 6-week old male ddY mice were obtained by the Litchfield-Wilcoxon method. One group of mice was fasted overnight prior to oral administration. To each group of mice, the test compound was administered in the form of emulsion in 10% dimethyl sulfoxide.

Compound	ED50 (coronary vascular dilative effect) [1]	ED30 (vertebral artery)	other results
CC1=NC(C)=C(C(=O)OCC2CC2)C(c2ccccc2[N+](=O)[O-])N1C(=O)OCCN(C)Cc1ccccc1 (stereo not shown) [Compound 1, 3-{2-(N-benzyl-N-methylamino)ethoxycarbonyl}-5-cyclopropylmethoxycarbonyl-2,6-dimethyl-4-(2-nitrophenyl)-3,4-dihydropyrimidine]	0.013 μg/heart	0.00058 mg/kg	
CC1=NC(C)=C(C(=O)OCC2CC2)C(c2cccc([N+](=O)[O-])c2)N1C(=O)OCCN(C)Cc1ccccc1 (stereo not shown) [Compound 2]	0.52 μg/heart	0.00084 mg/kg	
CCOC(=O)C1=C(C)N=C(C)N(C(=O)OCCN(C)Cc2ccccc2)C1c1ccccc1[N+](=O)[O-] (stereo not shown) [Compound 3]	0.0095 μg/heart	0.00075 mg/kg	
COc1ccc(CN(C)CCOC(=O)N2C(C)=NC(C)=C(C(=O)OCC3CC3)C2c2ccccc2[N+](=O)[O-])cc1 (stereo not shown) [Compound 5]	0.036 μg/heart	0.0024 mg/kg	
CC1=NC(C)=C(C(=O)OCC2CC2)C(c2ccccc2[N+](=O)[O-])N1C(=O)OCCN(C)Cc1ccccc1Cl (stereo not shown) [Compound 6]	0.0092 μg/heart	0.0014 mg/kg	
CC1=NC(C)=C(C(=O)OCC2CC2)C(c2ccccc2[N+](=O)[O-])N1C(=O)OCCN(C)Cc1ccc([N+](=O)[O-])cc1 (stereo not shown) [Compound 7]	0.0012 μg/heart	0.00071 mg/kg	
CC1=NC(C)=C(C(=O)OCC2CC2)C(c2ccccc2[N+](=O)[O-])N1C(=O)OCCCCCN(C)Cc1ccccc1 (stereo not shown) [Compound 9]	0.10 μg/heart	0.0039 mg/kg	
CC1=NC(C)=C(C(=O)OC(C)C)C(c2ccccc2[N+](=O)[O-])N1C(=O)OCCN(C)Cc1ccccc1 (stereo not shown) [Compound 10]	0.060 μg/heart	0.00054 mg/kg	
CC1=NC(C)=C(C(=O)OCC2CC2)C(c2ccccc2[N+](=O)[O-])N1C(=O)OCCN(C)Cc1ccc(F)cc1 (stereo not shown) [Compound 11]	0.030 μg/heart	0.00055 mg/kg	
CC1=NC(C)=C(C(=O)OCC2CC2)C(c2ccccc2[N+](=O)[O-])N1C(=O)OCCN1CCc2ccccc2C1 (stereo not shown) [Compound 21]	0.45 μg/heart	0.002 mg/kg	
CC1=NC(C)=C(C(=O)OCC2CC2)C(c2ccccc2[N+](=O)[O-])N1C(=O)OCCN1CCN(Cc2ccccc2)CC1 (stereo not shown) [Compound 24]	0.01 μg/heart		
CC1=NC(C)=C(C(=O)OC(C)C)C(c2ccccc2[N+](=O)[O-])N1C(=O)OCCc1ccccn1 (stereo not shown) [Compound 27]	0.029 μg/heart		
CC1=NC(C)=C(C(=O)OCC2CC2)C(c2ccccc2[N+](=O)[O-])N1C(=O)OCCN(CCCc1ccccc1)Cc1ccccc1 (stereo not shown) [Compound 28, 3-[2-{N-benzyl-N-(3-phenylpropyl)amino}ethoxycarbonyl]-5-cyclopropylmethoxycarbonyl-2,6-dimethyl-4-(2-nitrophenyl)-3,4-dihydropyrimidine]		0.0042 mg/kg	time of maximum blood pressure decrease [2]: 2 h; Blood pressure decrease, 6 hours ([2]; 6 hours): 10-20%; Blood pressure decrease, maximum decrease ([2]; in 2 hrs): 35%; LD50 ([3]; male ddY mice fasted overnight, oral, read-out: LD50 oral): > 1000 mg/kg; LD50 ([3]; male ddY mice, intravenous, read-out: LD50 intravenous): 180 to 200 mg/kg
